# From US20240109877A1, “PYRIMIDINES FOR DEGRADING BRUTON'S TYROSINE KINASE” (AbbVie Inc., priority 2022, published 2024)
# Tested on: TCL1-driven CLL bearing BTK^C481S mutation
# Test: TCL1-driven CLL bearing BTK C481S mutation in C57BL/6 mice, circulating leukemia burden
# Type: in vivo, mouse
# Conditions: once daily (QD) for 19 days
# From the text: EIA-TCL1 CLL transgenic mice (Crogen Pharmaceuticals LLC) were crossed with BTK^C481S knock-in mice (AbbVie) to generate Eμ-TCL1 transgenic mice carrying the BTK^C481S mutation. The leukemic splenocytes from these BTK^C481S Eμ-TCL1 transgenic mice (Passage 1) were transplanted intravenously into C57BL/6 mice, leading to CLL development in the peripheral blood and spleen. When circulating CLL burden (CD5+CD19+ cells as described below) in the recipient mice reached over 90%, their splenocytes (Passage 2) containing high CLL burden were cryopreserved and used for CLL efficacy studies. […]
# To determine the absolute/total leukocyte numbers, complete blood counts were determined for each mouse using the Genesis™ veterinary hematology analyzer (Oxford Science Inc.).
# Cells isolated from murine peripheral blood mononuclear cells (PMBCs) were collected to determine antigen expression. […] Cells were gated on CD45+, and thereafter the percentage of cells that were CD5+CD19+ from that subset was calculated. […]
# Whole blood was collected weekly post tumor implantation via submandibular cheek bleeding. Circulating leukemic burden was calculated by multiplying absolute/total leukocyte count with the percentage of the leukocytes have the immunophenotype CD19^+CD5^+. […]
smiles,measurement,setting,value
"Cc1cc(-c2cc(Nc3ccc(N4CCN(CCc5ccc(N6CCC(=O)NC6=O)cc5)C[C@@H]4C)cn3)ncn2)ccc1[C@@H](C)NC(=O)c1nc(C(C)(C)C)no1 [Example 1, 3-tert-butyl-N-[(1R)-1-{4-[6-({5-[(2S)-4-{2-[4-(2,4-dioxo-1,3-diazinan-1-yl)phenyl]ethyl}-2-methylpiperazin-1-yl]pyridin-2-yl}amino)pyrimidin-4-yl]-2-methylphenyl}ethyl]-1,2,4-oxadiazole-5-carboxamide]",circulating leukemia burden (CD19+CD5+ CLL cells per μL),"Dosage 1-4, dose-dependent manner, FIG. 1",controlled circulating leukemia burden
same,CLL burden control (no increase from the initial tumor burden),at Dosage 3 and Dosage 4,Complete CLL burden control
